Measured values published in PMC9731865, “Gambogic acid and juglone inhibit RNase P through distinct mechanisms” (The Journal of Biological Chemistry, 2022).
Where two headings read alike, the source gives them in different places.

How the values were obtained:
B. subtilis RNase P = B. subtilis RNase P activity assay (FP, real-time); assay type: biochemical; settings: ratio of IC50 values
Protocol: Figure 4 Gambogic acid and juglone inhibit A. thaliana PRORP1 (green), human MRPP1/2/3 (red), and B. subtilis RNase P (blue). Compounds gambogic acid (A) and juglone (B) were incubated with enzyme at double the reaction concentration for 30 min prior to the addition of an equal volume of substrate to initiate the reaction. PRORP1 reactions (shown in green) were performed with 0.3 nM PRORP1 and 800 nM pre-tRNA containing 40 nM Fl-pre-tRNA at 25 °C in 30 mM MOPS pH 7.8, 5 mM MgCl2, 100 mM NaCl, 1 mM TCEP, 500 nM (12 μg/ml) yeast tRNA, 5 mM spermidine, 6.65 μg/ml BSA, and 0.01% NP-40. MRPP1/2/3 reactions (shown in red) were performed using 50 nM MRPP3, 500 nM MRPP1/2, 500 nM pre-tRNA containing 40 nM Fl-pre-tRNA at 37 °C in 50 mM MOPS (pH 7.8), 1 mM TCEP, 4.5 mM MgCl2, and 100 mM NaCl. B. subtilis RNase P reactions (shown in blue) were performed using 20 nM RNase P and 500 nM pre-tRNA containing 40 nM Fl-pre-tRNA at 37 °C in 50 mM Tris, pH 7.2, 5 mM MgCl2, 100 mM KCl, 500 nM (12 μg/ml) yeast tRNA, 20 mM dithiothreitol (DTT), 10 mM spermidine, and 0.01% NP-40. Equation 1 was fit to each dataset.
The inhibition of B. subtilis RNase P activity by gambogic acid and juglone was measured using a previously developed FP assay in real-time.^25 Reactions were performed under multiple turnover conditions using 20 nM RNase P and 500 nM Fl-pre-tRNA^Asp in 50 mM Tris (pH 7.2), 5 mM MgCl2, 100 mM KCl, 500 nM (12 μg/ml) yeast tRNA^mix, 20 mM dithiothreitol, 10 mM spermidine, and 0.01% NP-40 at 37 °C.

PRORP1 wildtype = target: T1, PRORP1 wildtype (Arabidopsis thaliana, UniProt Q66GI4); test: Time-dependent inactivation of PRORP1 by juglone (varying preincubation time); assay type: biochemical, A. thaliana; settings: for kinact/KI: wildtype PRORP1, 0.3 nM PRORP1, 250 nM pre-tRNA, 22 °C
T1 construct: made in house
T1 sequence (Q66GI4 77-572): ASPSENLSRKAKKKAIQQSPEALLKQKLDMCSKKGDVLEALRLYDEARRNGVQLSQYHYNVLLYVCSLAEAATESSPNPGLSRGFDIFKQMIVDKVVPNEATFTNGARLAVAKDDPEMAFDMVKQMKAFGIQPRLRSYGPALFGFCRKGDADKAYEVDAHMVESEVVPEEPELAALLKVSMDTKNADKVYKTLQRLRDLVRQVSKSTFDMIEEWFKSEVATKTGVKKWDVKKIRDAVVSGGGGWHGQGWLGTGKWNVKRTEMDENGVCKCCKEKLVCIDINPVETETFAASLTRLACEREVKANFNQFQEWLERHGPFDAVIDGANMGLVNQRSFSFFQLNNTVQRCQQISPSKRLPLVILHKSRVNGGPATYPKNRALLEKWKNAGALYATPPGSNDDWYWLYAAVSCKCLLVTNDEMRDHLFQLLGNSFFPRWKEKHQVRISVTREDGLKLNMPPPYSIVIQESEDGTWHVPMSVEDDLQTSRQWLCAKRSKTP
Protocol: A global fit of the data (Equations 5 and 6) was used to calculate kinact/KI. […] The errors shown are the standard errors obtained from fitting Equation 5 to the data in A independently. Reactions were performed with 0.3 nM PRORP1, 250 nM pre-tRNA containing 40 nM Fl-pre-tRNA, at 22 °C, in 30 mM MOPS, pH 7.8, 1 mM TCEP, 5 mM MgCl2, 500 nM (12 μg/ml) yeast tRNA, 5 mM spermidine, 6.65 μg/ml BSA, and 0.01% NP-40. Data are fit to determine kinact/KI.
For the analysis of juglone, PRORP1 activity was measured with varying preincubation time and juglone concentration. Varying concentrations of juglone were preincubated with a 35 μl of PRORP1 from 2 min to 4 h in 30 mM MOPS pH 7.8, 5 mM MgCl2, 100 mM NaCl, 1 mM TCEP, 500 nM (12 μg/ml) yeast tRNA^mix, 5 mM spermidine, 6.65 μg/ml BSA, and 0.01% NP-40. The concentration of DMSO in each reaction was held constant at 1%. Reactions were initiated by addition of 5 μl of substrate for a final working concentration of 0.3 nM PRORP1 and 250 nM pre-tRNA, a substrate concentration well below the KM value. The dependence of the initial velocity on the preincubation time was fit to a single exponential decay equation (Equation 5) to determine kinact,app at each juglone concentration. The values for kinact,app for various juglone concentrations (represented by [I]) were fit with Equation 6 to determine kinact/KI, assuming a 2-step inactivation mechanism.(5) Activity(%)=Ae^−(kinact,app)t (6) kinact,app=kinact/KI(KI[I]/KI+[I])

SMILES | fold less potent against B. subtilis RNP RNase P than against PRORP1 and MRPP1/2/3 (B. subtilis RNase P) | fold less potent against B. subtilis RNP RNase P than against PRORP1 and MRPP1/2/3 (B. subtilis RNase P; listed as Gambogic acid) | Ki (PRORP1 wildtype) | decrease in initial activity (extrapolated to 0 min preincubation) (PRORP1 wildtype; 10 μM juglone (highest concentration)) | Hill coefficient n of the fit to 0-min preincubation data (PRORP1 wildtype; Equation 1) | mode of inhibition of PRORP1 (PRORP1 wildtype; inhibition depends on preincubation time) | kinact/KI (PRORP1 wildtype; read-out: kinact/KI, global fit using Equations 5 and 6 (converted)) | kinact/KI (PRORP1 wildtype; read-out: kinact/KI, hyperbolic fit using Equation 6 (converted))
CC(C)=CCC[C@]1(C)C=Cc2c(O)c3c(c(CC=C(C)C)c2O1)O[C@]12C(=C[C@@H]4C[C@H]1C(C)(C)O[C@@]2(C/C=C(/C)C(=O)O)C4=O)C3=O [gambogic acid] | at least 50 fold | more than 50 fold | – | – | – | – | – | –
O=C1C=CC(=O)c2c(O)cccc21 [juglone, 5-hydroxy-1,4-naphthalenedione] | – | – | 12.5 ± 2.7 µM | 50% | 1 | time-dependent inhibitor | 16.7 M⁻¹ s⁻¹ | 16.7 M⁻¹ s⁻¹
